Measurements taken from PMC4076079, “Selective inhibitors of a PAF biosynthetic enzyme lysophosphatidylcholine acyltransferase 2” (Journal of Lipid Research, 2014).
Values joined by “and” are separate entries in the source; they are usually repeats but may differ in a detail not shown here. Identical values can stand only once. Values belong to the compound of their own block, whether it stands above or below them.

What was measured:
[1] = cell viability assay (WST-8); type: cell-based, mouse; conditions: mouse, RAW-mLPCAT2 cells (RAW264.7 cells transfected with mLPCAT2), 36 h treatment, WST-8, data not shown, read-out: cytotoxicity IC50 (cell viability)
Protocol: (§1) Cell viability was measured using a modified MTT [3-(4,5-dimethylthiazol-2-yl)-2,5-diphenyltetrazolium bromide] dye reduction assay using WST-8 [2-(2-methoxy-4-nitrophenyl)-3-(4-nitrophenyl)-5-(2,4-disulfophenyl)-2H-tetrazolium, monosodium salt; Dojindo Molecular Technologies, Inc., Kumamoto, Japan] according to the manufacturer’s instructions. […] or RAW-mLPCAT2 cells were seeded in 96-well plates (1 × 10^4 cells/well) for 8 h and then treated with a compound for 36 h. WST-8 was added for another 2 h and the 450 nm absorbance was measured using a microplate reader (Bio-Rad). Cell viability was expressed as a percentage of vehicle-treated control values. To observe the effects of the incubation time on cell viability, 0.4 × 10^4 RAW-mLPCAT2 cells were treated with compounds for 1 or 6 h before the WST-8 assay.
(§2) Step 8 screening: cell viability assay
(§3) Wild-type RAW264.7 cells and RAW264.7 cells transfected with mLPCAT2 or control plasmid were used. Cells were cultured for 36 h with 0, 0.06, 0.2, 0.6, 2, 6, and 20 µM of compounds in 96-well plates and assayed for viability with WST-8. […]
(§4) The data were normalized to each positive control (100% activation). Percentage inhibition or IC50 were determined in each screening step. To assess screening quality, the percentage coefficient of variance and the Z’ factor was calculated for each plate or each assay as described previously (2).

RAW-mLPCAT2 cells = test: cell viability assay (WST-8); type: cell-based, mouse; conditions: Mus musculus, 1 h pretreatment
Protocol: as §1, §2, §3, §4

hLPCAT2 = biological target: T1, hLPCAT2 (Homo sapiens, UniProt Q7L5N7); test: lyso-PAFAT (acetyltransferase) activity assay, PAF product by LC-MS/MS; type: biochemical; conditions: for IC50: 0, 0.2, 0.6, 2, 6 and 20 μM of each compound in triplicate, LC-MS/MS, read-out: IC50, product PAF, enzyme hLPCAT2; for percentage inhibition, product PAF, hLPCAT2: 20 μM compound, microsomal fractions of nonstimulated CHO-S-PAFR cells, n = 3, mean ± SEM; for selectivity for hLPCAT2 over hLPCAT1: from IC50 values of Table 1
T1 construct: expressed in transfected cells; host or cells: CHO-S-PAFR cells (microsomal fraction), with or without mcPAF stimulation
T1 sequence (Q7L5N7 1-544): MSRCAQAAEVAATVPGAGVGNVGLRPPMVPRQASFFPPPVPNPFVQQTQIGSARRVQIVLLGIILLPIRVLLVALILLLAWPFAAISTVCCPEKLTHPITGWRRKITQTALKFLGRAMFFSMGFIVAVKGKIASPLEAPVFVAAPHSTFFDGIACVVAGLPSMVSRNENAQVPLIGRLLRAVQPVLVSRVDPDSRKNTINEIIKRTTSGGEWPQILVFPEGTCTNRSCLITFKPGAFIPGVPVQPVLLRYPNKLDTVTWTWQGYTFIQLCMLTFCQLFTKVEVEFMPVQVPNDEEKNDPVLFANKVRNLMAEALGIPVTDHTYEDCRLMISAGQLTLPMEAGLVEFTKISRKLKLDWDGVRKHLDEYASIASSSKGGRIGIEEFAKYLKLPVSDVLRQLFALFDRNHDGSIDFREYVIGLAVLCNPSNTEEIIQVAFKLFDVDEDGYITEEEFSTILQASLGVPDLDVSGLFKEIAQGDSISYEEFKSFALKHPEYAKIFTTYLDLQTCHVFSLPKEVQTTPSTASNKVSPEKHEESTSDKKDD
Protocol: Microsomal protein fractions (0.5 μg) supplemented with the indicated compound concentrations were added to the reaction mixture containing 100 mM Tris-HCl (pH 7.4), 1 μM CaCl2, 0.015% Tween-20, and two substrates. For acetyltransferase activity, the substrates were 1 mM acetyl-CoA and 5 μM d4-lyso-PAF; for the acyltransferase activity of LPCAT1 or LPCAT2, the substrates were, respectively, palmitoyl-CoA and d31-16:0 LPC or arachidonoyl-CoA and d4-lyso-PAF (all 5 μM). Each lysophospholipid contained fatty acid at the sn-1 position. After incubation at 37°C for 5 min, the reactions were stopped by adding 300 μl methanol containing 17:0 LPC or 14:0/14:0 PC as an internal standard. Deuterium-labeled products were analyzed by LC-MS/MS (Waters, Milford, MA and Thermo Scientific, Waltham, MA). […]
Steps 2 to 5 screening: 96-well plate assay
Acetyltransferase and acyltransferase assays were developed in 96-well plates. The microsomal hLPCAT2, obtained from mcPAF-stimulated CHO-S-PAFR cells was used in steps 1, 2, and 5. The microsomal hLPCAT1 obtained from unstimulated CHO-S cells was used in steps 3 to 5. Each well of the 96-well plates contained 30 µl of 15 µg/ml protein, 600 nl of 2 mM compound, 30 µl buffer C, and two substrates (Fig. 1B and C).
Substrate concentrations were as follows: acetyl-CoA, 250 or 1000 µM acetyl-CoA; […]
arachidonoyl-CoA, 5 µM; palmitoyl-CoA, 5 µM; d4-lyso-PAF, 5 µM; and d31-LPC, 5 µM.
For step 5, compound concentrations were 0, 0.167, 0.67, 2, 6.7, and 20 µM. The deuterium-labeled products were measured by LC-MS/MS. Percentage inhibition (steps 2 to 4) or IC50 (step 5) was used as the hit criterion.
Step 6 screening: BSA assay
The acetyltransferase assay was performed with 20 µM of each compound and microsomal hLPCAT2 from step 1. The assay mixture contained 0.4% BSA and two substrates for lyso-PAFAT activity: 1 mM acetyl-CoA and 5 µM d4-lyso-PAF. Percentage inhibition values were determined.
Step 7 screening: species-specific differences
To evaluate the effects on the activity of mouse or human LPCAT1 and LPCAT2, each microsomal fraction was obtained using CHO-S-PAFR cells with or without mcPAF (200 nM) stimulation for 5 min. Acetyltransferase and acyltransferase assays were performed with 20 µM of each compound. Percentage inhibition was calculated in each

Compound: CC(C)OC(=O)c1ccc(N2C(=O)C(Cl)=C(Nc3ccccc3O)C2=O)cc1 [TSI-07]
IC50 at 36 h [1]: > 20000 nM | IC50 (RAW-mLPCAT2 cells): > 60000 nM | IC50 (hLPCAT2): 5500 nM | percentage inhibition, product PAF, hLPCAT2 (hLPCAT2): 90.8 ± 3.0 percentage | selectivity for hLPCAT2 over hLPCAT1 (hLPCAT2): approximately 10 fold

Compound: CC(C)OC(=O)c1ccc(N2C(=O)C(Cl)=C(Cl)C2=O)cc1 [TSI-01, propan-2-yl 4-(3,4-dichloro-2,5-dioxopyrrol-1-yl)benzoate]
IC50 at 36 h [1]: > 20000 nM | IC50 (RAW-mLPCAT2 cells): > 60000 nM | IC50 (hLPCAT2): 470 nM | percentage inhibition, product PAF, hLPCAT2 (hLPCAT2): 99.8 ± 0.1 percentage | selectivity for hLPCAT2 over hLPCAT1 (hLPCAT2): approximately 10 fold

Compound: O=C1C(Cl)=C(N2CCOCC2)C(=O)N1c1ccc(Oc2ccccc2)cc1 [TSI-02, 3-chloro-4-morpholin-4-yl-1-(4-phenoxyphenyl)pyrrole-2,5-dione]
IC50 (hLPCAT2): 2170 nM

More lines, main results first:

IC50 (hLPCAT2): ~100 nM and 130 nM | percentage inhibition, product PAF, hLPCAT2 (hLPCAT2): 99.5 ± 0.2 percentage | selectivity for hLPCAT2 over hLPCAT1 (hLPCAT2): approximately 10 fold
Compound: CCCOC(=O)c1ccc(N2C(=O)C(Cl)=C(Cl)C2=O)cc1 [TSI-10]
IC50 at 36 h [1]: > 20000 nM | IC50 (RAW-mLPCAT2 cells): > 60000 nM

IC50 (hLPCAT2): ~100 nM and 140 nM | percentage inhibition, product PAF, hLPCAT2 (hLPCAT2): 99.4 ± 0.2 percentage | selectivity for hLPCAT2 over hLPCAT1 (hLPCAT2): approximately 10 fold
Compound: CCCCOC(=O)c1ccc(N2C(=O)C(Cl)=C(Cl)C2=O)cc1 [TSI-11, butyl 4-(3,4-dichloro-2,5-dioxopyrrol-1-yl)benzoate]
IC50 at 36 h [1]: > 20000 nM | IC50 (RAW-mLPCAT2 cells): > 60000 nM
